Consider 8 compounds from patent publication US11673889B2, “Substituted imidazo[4,5-c][1,8]naphthyridines as phosphodiesterase inhibitors” (Nanjing Zhengxiang Pharmaceuticals Co., Ltd., priority 2019, dated 2023).

Like-named read-outs stand apart in the source and are kept apart here.

Data set [1] can be described thus: Liver microsome stability, mouse. The data set is classed as in vitro ADME. As for the experimental part:
Liver microsome assay was used to evaluate the metabolic stability of I-VI. The test article at the concentration of […] was incubated with 0.5 mg/mL liver microsome in the presence of NADPH and UDPGA as the co-factors for 0, 15, 30, 45 and 60 minutes. The incubation was carried out at 37° C. with 5% CO2 and saturating humidity. Disappearance of the test article was monitored by LC/MS/MS. the disappearance half-life (t1/2), intrinsic clearance and hepatic extraction ratio were determined.

Data set [2] deals with T1, ENPP-1, HEK293 cells (Homo sapiens, UniProt P22413).
T1 construct: ENPP-1 were mainly expressed on the surface of cell membrane; endogenous in cells; host or cells: HEK293
T1 sequence (P22413 1-925): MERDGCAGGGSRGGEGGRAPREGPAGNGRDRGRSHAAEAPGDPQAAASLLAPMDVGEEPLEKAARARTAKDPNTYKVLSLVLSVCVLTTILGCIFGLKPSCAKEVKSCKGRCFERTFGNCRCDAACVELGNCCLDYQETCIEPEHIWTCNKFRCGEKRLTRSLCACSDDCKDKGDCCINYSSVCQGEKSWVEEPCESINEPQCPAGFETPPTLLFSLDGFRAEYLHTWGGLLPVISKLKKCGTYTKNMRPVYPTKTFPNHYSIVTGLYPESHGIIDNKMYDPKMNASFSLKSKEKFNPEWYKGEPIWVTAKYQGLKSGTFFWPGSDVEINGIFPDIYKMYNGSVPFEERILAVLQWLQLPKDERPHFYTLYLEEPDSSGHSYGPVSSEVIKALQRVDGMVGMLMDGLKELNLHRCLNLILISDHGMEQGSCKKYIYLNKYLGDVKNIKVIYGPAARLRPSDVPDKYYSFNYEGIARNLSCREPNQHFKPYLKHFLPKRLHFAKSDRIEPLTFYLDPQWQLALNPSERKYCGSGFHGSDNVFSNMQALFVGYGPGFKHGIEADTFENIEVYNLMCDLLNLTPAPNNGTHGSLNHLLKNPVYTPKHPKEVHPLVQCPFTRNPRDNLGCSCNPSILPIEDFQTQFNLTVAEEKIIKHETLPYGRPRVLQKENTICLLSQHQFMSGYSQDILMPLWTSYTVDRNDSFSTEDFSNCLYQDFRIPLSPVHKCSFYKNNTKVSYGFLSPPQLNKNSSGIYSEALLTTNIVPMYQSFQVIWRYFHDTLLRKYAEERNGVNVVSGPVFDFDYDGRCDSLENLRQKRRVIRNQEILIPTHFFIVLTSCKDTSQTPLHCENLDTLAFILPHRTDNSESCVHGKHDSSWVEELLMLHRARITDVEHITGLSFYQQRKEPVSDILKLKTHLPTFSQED
The experiment in a line: Cellular enzymatic assay of ENPP-1 inhibitors using TMP-pNP as substrate, HEK 293 cells. The data set is classed as cell-based. The protocol: (§1) ENPP-1 were mainly expressed on the surface of cell membrane where it hydrolytes 2′3′-cGAMP to generate 5′-GMP and 5′-AMP. ENPP-1 also has the ability to hydrolyzes artificial phosphoric acid ester TMP-pNP to nucleotide-5′-monophosphate and p-nitrophcnol there, which is a chromogenic product.
(§2) 8 point of different concentrations of each inhibitor were prepared with the final assay concentrations starting at 20 μM. 3× series dilution by DMEM medium without FBS was applied. Prior to adding inhibitors, 75000 cells per well were incubated at 37° C., 5% CO2 in DMEM for 24 hours. After removing the supernatant medium, 50 μL inhibitor solution was added into each well with cultured cells and incubate at 37° C., 5% CO2 for 60 minutes.
(§3) The IC50 values for percent inhibition versus compound concentration are determined by fitting the inhibition curves using a four-parameter variable slope model in GraphPad Prism® 8.

Data set [3] has as its target T2, ENPP-1, Saos-2 cells (Homo sapiens, UniProt P22413).
T2 construct: ENPP-1 were mainly expressed on the surface of cell membrane; endogenous in cells; host or cells: Saos-2
T2 sequence (P22413 1-925): T1 sequence (P22413 1-925)
The experiment in a line: Cellular enzymatic assay of ENPP-1 inhibitors using TMP-pNP as substrate, Saos-2 cells. The data set is classed as cell-based. The conditions noted are these: for inhibition at 20 µM: SAOS-2, read-out: % Inhibition (@20 μM). The protocol:
as §1, §2, §3

The target of data set [4] is T3, human soluble ENPP1 (Homo sapiens, UniProt P22413).
T3 construct: 20 ng of human soluble ENPP1
T3 sequence (P22413 103-925 limits assumed): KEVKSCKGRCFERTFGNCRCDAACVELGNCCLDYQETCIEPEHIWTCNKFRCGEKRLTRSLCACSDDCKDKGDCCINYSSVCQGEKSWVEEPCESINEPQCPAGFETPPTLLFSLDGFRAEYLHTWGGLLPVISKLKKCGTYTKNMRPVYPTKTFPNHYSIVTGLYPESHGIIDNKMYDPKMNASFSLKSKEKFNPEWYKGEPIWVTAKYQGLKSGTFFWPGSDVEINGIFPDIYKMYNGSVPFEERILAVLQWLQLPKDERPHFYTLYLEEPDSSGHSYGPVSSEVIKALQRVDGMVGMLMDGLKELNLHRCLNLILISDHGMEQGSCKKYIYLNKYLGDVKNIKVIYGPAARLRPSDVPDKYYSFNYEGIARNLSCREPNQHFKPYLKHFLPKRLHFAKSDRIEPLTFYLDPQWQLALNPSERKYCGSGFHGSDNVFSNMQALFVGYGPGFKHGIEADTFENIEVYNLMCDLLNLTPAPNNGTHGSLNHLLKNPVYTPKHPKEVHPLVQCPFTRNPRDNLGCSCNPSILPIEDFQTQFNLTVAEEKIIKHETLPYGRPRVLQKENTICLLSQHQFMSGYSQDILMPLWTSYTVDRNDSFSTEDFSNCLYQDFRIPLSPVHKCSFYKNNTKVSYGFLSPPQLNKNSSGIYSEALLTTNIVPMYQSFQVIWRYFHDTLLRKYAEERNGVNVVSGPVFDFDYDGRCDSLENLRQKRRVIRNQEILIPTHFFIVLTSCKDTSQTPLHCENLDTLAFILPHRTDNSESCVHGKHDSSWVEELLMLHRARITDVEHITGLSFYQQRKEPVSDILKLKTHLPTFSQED
The data set can be described thus: ENPP1 activity assay using p-Nitrophenyl-5′-AMP as a substrate. The data set is classed as biochemical. A digest of the protocol: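 Absorbance at 405 nm tracks p-nitrophenol from AMP-pNP hydrolysis after 1 h at room temperature, substrate added as 3 mM (2× final) following 30 min enzyme–compound preincubation. Enzyme: 35 ng human soluble ENPP1. IC50 fitted (variable-slope four-parameter) from percent inhibition normalized to max and blank.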

Data set [5] concerns the target T4, ENPP-1, MDA-MB-231 cells (Homo sapiens, UniProt P22413).
T4 sequence (P22413 1-925): T1 sequence (P22413 1-925)
The experiment in a line: cell-based. The conditions noted are these: for inhibition at 20 µM: MDA-MB-231, read-out: % Inhibition (at 20 μM).

Data set [6] concerns the target T3, human soluble ENPP1. The experiment in a line: ENPP1 activity assay using p-Nitrophenyl-5′-TMP as a substrate. The data set is classed as biochemical. The method, boiled down:
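Percent inhibition, set against uninhibited-enzyme and blank wells, was fitted to a four-parameter variable-slope model for IC50. Chromogenic read-out was p-nitrophenol released from TMP-pNP, added as a 2 mM […] solution for 1 h at RT. Before that, 20 ng soluble ENPP1 sat 30 min with compound.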

Data set [7] in a line: Pharmacokinetics in mice. The data set is classed as in vivo. The conditions noted are these: mouse, plasma, male CD-1 mice, 1 mg/kg, iv; for Vd: read-out: Vdss. The protocol: A dosing solution of test sample was prepared at 1.0 mg/mL in 5% DMSO/40% PEG400/55% water and administered to male CD-1 mice (4-6 weeks old, 20-30 grams, 3 animals each group) via intravenous (IV) bolus at 1 mg/kg and by oral gavage (PO) at 5 mg/kg. Blood samples (˜0.03 mL each time point) were collected via the jugular vein into tubes containing sodium heparin as the anticoagulant at 0.033, 0.083, 0.25, 0.5, 1, 2, 4, 8 and 24 hours post dose for IV administration and 0.083, 0.25, 0.5, 1, 2, 4, 8 and 24 hours post dose for PO administration. The blood samples were then centrifuged for 5 minutes in a centrifuge refrigerated at 4° C. The resultant plasma samples were analyzed using LC/MS/MS to determine concentrations of test sample. Non-compartmental model with WinNonlin (Phoenix™, version 8.0) software was used to calculate pharmacokinetic (PK) parameters.

The mark [8] stands for this setting: HEK293, read-out: Inhibition (at 20 μM).
[9] abbreviates: HEK293, HEK 293 cells, at 20 μM, read-out: Inhibition (at 20 μM).

Broadly, the inhibition is the percentage by which the read-out fell short of the control. One may read the IC50 as the concentration that inhibits the measured activity by half. Read a high IC50 as weaker potency in that assay. Take `COc1cc2ncc3[nH]c(=O)n(Cc4ccc(S(N)(=O)=O)cc4)c3c2cc1OC` [Compound 1, 4-((7,8-dimethoxy-2-oxo-2,3-dihydro-1H-imidazo[4,5-c]quinolin-1-yl)methyl)benzenesulfonamide]: in data set [1] (Mouse liver microsome), the “Hepatic extraction ratio Re” value came out at 0. Further, the “Half-life t1/2 (min)” value in data set [1] (Mouse liver microsome 0.5 mg/mL, NADPH and UDPGA, 37° C.) is recorded as “∞”. The inhibition at 20 µM in data set [2] (setting [8]) turned out to be 19%; in data set [3] it was 32%; in data set [5] it was 50%. Further, the IC50 in data set [4] amounted to 5.9 nM; in data set [5] it was 2900 nM; in data set [6], 1.7 nM.

Consider `COc1cc2ncc3ncn([C@H](C)c4ccc(S(N)(=O)=O)cc4)c3c2cc1OC` [Compound 11a, (R)-4-(1-(7,8-dimethoxy-1H-imidazo[4,5-c]quinolin-1-yl)ethyl)benzenesulfonamide], for which, in data set [1] (Mouse liver microsome), the “Hepatic extraction ratio Re” value is on record as 0.85. In addition, the half-life in data set [1] (liver microsomes, Mouse liver microsome 0.5 mg/mL, NADPH and UDPGA, 37° C., read-out: Half-life t1/2) was determined as 11 min. Moreover, the microsomal CLint in data set [1] (liver microsomes, Mouse liver microsome, read-out: Intrinsic clearance Cl′int, (μL/min/mg protein)) was 131 µL/min/mg. In addition, the IC50 in data set [2] was 2100 nM; in data set [3], 1200 nM; in data set [4], 2.5 nM; in data set [5] it was 600 nM; in data set [6], 0.88 nM. Further, the inhibition at 20 µM in data set [2] (setting [9]) was 84%; in data set [3], 87%; in data set [5] it was 79%.

Usually AUC stands for the area under the concentration-time curve, a measure of exposure. Low values mean low exposure, high ones high exposure. In general, clearance refers to the volume of plasma or blood freed of the substance per unit of time. A high value points to a high capacity for elimination. On to `COc1ccc2c(ncc3ncn(Cc4ccc(S(N)(=O)=O)cc4)c32)n1` [Compound 39, 4-((7-methoxy-1H-imidazo[4,5-c][1,8]naphthyridin-1-yl)methyl)benzenesulfonamide], for which, in data set [2], the IC50 amounted to 730 nM. Further, the inhibition at 20 µM in data set [2] (setting [9]) amounted to 94%. In addition, the IC50 in data set [4] amounted to 0.42 nM. Moreover, in data set [5], half-maximal inhibition (IC50) required 400 nM and the inhibition at 20 µM turned out to be 82%. This compound had an IC50 in data set [6] of 0.25 nM. In addition, in data set [7], the AUC was 115 ng·h/mL, the clearance was 115 mL/min/kg, the half-life is 19.8 min and the Vd came to 3.1 L/kg.

In data set [2], `COc1ccc2c(ncc3ncn(Cc4ccc(S(N)(=O)=O)cn4)c32)n1` [Compound 40, 6-((7-methoxy-1H-imidazo[4,5-c][1,8]naphthyridin-1-yl)methyl)pyridine-3-sulfonamide] displayed an IC50 of 130 nM. The inhibition at 20 µM in data set [2] (setting [8]) worked out at 96%. The compound further had an IC50 in data set [4] of 0.23 nM. Besides, in data set [5], the IC50 amounted to 65 nM and the inhibition at 20 µM is 85%. In data set [6], this compound returned an IC50 of 0.15 nM. Further, in data set [7], the AUC came out at 241 ng·h/mL, the clearance was determined as 70 mL/min/kg, the half-life was 162 min and the Vd was 7.3 L/kg.

On to `COc1ccc2c(ncc3ncn(Cc4ccc(S(N)(=O)=O)nc4)c32)n1` [Compound 41, 5-((7-methoxy-1H-imidazo[4,5-c][1,8]naphthyridin-1-yl)methyl)pyridine-2-sulfonamide], for which half-maximal inhibition in data set [2] (IC50) was put at 660 nM. In addition, the inhibition at 20 µM in data set [2] (setting [9]) turned out to be 96%. Further, in data set [4], half-maximal inhibition (IC50) was put at 0.9 nM. In addition, in data set [5], half-maximal inhibition (IC50) was put at 310 nM and the inhibition at 20 µM stood at 81%. The compound also yielded an IC50 in data set [6] of 0.21 nM. In data set [7], the AUC was determined as 227 ng·h/mL, the clearance came out at 74 mL/min/kg, the half-life is 72 min and the Vd amounted to 4 L/kg.

On to `COc1ccc2c(ncc3ncn(Cc4ccc(NS(N)(=O)=O)cc4)c32)n1` [Compound 46, 4-((7-methoxy-1H-imidazo[4,5-c][1,8]naphthyridin-1-yl)methyl)phenyl sulfamide], for which the figures for the IC50 in data set [2], in data set [5] and in data set [6] were 2400 nM, 1600 nM and 5.2 nM, respectively. The inhibition at 20 µM in data set [2] (setting [8]) came to 85%; in data set [5] it was 75%.

As for `COc1ccc2c(ncc3nc(C(F)(F)F)n(Cc4ccc(S(N)(=O)=O)cc4)c32)n1` [Compound 47, 4-((7-methoxy-2-(trifluoromethyl)-1H-imidazo[4,5-c][1,8]naphthyridin-1-yl)methyl)benzenesulfonamide], the values for the IC50 in data set [2], in data set [5] and in data set [6] were 5000 nM, 3400 nM and 1 nM, respectively. The results for the inhibition at 20 µM in data set [2] (setting [9]) and in data set [5] were 77% and 72%, respectively.

On to `COc1cnc2c(c1)ncc1ncn(Cc3ccc(S(N)(=O)=O)cc3)c12` [Compound 49, 4-((7-methoxy-1H-imidazo[4,5-c][1,5]naphthyridin-1-yl)methyl)benzenesulfonamide], for which the IC50 in data set [2] came to 10000 nM; in data set [4], 4.8 nM; in data set [5], 6000 nM; in data set [6] it was 1.9 nM. Further, the inhibition at 20 µM in data set [2] (setting [9]) and in data set [5] was 67% throughout.
